Assay results published in patent US20120202883A1, “EFFECTS OF IDH1 AND IDH2 MUTATIONS ON THE CELLULAR METABOLOME” (DUKE UNIVERSITY, priority 2011, published 2012).
Where a SMILES comes first, the peptide text is derived from it.

Assays:
HOG cells [1] = assay: Metabolomic profiling (LC-MS, GC-MS) of HOG cell lysates after 2HG treatment or IDH1 shRNA expression; type: cell-based, human; conditions: for number of biochemicals with altered levels: 72 hours, HOG cells vs vector, p<0.05
From the text: Cell lines. HOG cells were derived from a human WHO grade III anaplastic oligodendroglioma (28) and previously found not to contain exon 4 IDH1 or exon 4 IDH2 mutations (8). The HOG cell line was kindly donated by Dr. A. T. Campagnoni at UCLA. To express IDH1 and IDH2 transgenes in cells, IDH1 and IDH2 cDNAs, or cDNAs mutagenized to IDH1-R132H or IDH2-R172K, were cloned into pLenti6.2/V5 (Invitrogen, Carlsbad, Calif.). Viruses were created using these constructs in 293FT cells and these were used to transduce cells derived from the same parental pool of HOG cells for 24 h. Cells derived from the same clone were reasoned to have homogenous IDH transgene expression levels and metabolic profiles compared to pools of cells or transiently transfected cells, facilitating the identification of metabolites that have altered levels in different clones. Virus was replaced by fresh media for 48 hours and then stable clones were selected from single-cell dilutions in 5 μg/ml blasticidin for 3 weeks. Stable HOG cell lines containing IDH1 shRNA or control were constructed by transfecting HOG cells with pSuperRetro vector (OligoEngine, Seattle, Wash.) containing IDH1-specific hairpin or a scrambled sequence (5′-cat aac gag cgg aag aac g-3′). The IDH1-specific hairpin was created using the primers 5′-gat ccc cGG GAA GTT CTG GTG TCA Tat tca aga gaT ATG ACA CCA GAA CTT CCC ttt ttg gaa a-3′ and 5′-agc ttt tcc aaa aaG GGA AGT TCT GGT GTC ATA tct ctt gaa TAT GAC ACC AGA ACT TCC Cgg g-3′, with capital letters representing bases homologous to IDH1 sequence. Clones were selected with 500 μg/ml G418 for 3 weeks and expanded after single cell dilution. Percent knockdown was determined by ImageJ (v1.43, available at http://rsbweb.nih.gov/ij/, developed by Wayne Rasband, National Institutes of Health, Bethesda, Md.) analysis of the intensity of immunoblot anti-IDH1 bands, normalized to the intensity of anti-GAPDH internal control bands (FIG. S4A). The same clone of vector, IDH1-WT, and IDH1-R132H HOG cells were used in all experiments.
2HG synthesis. 2HG was synthesized by treatment of D-glutamate (Sigma-Aldrich, St. Louis, Mo.) with nitrous acid to form a lactone, which was then hydrolyzed with NaOH solution to form 2-D-hydroxyl glutarate. Purity was 93%. Powder was resuspended in PBS and filtered through a 0.22 μm filter using sterile technique for treatment of cells.
Metabolomic analysis. Cell line treatment: Cells were grown under respective experimental conditions in IMDM media (Gibco, Invitrogen, Carlsbad, Calif.) supplemented with 10% FBS. For the experiment in FIG. 2, cells were grown in a media mix that also contained either 10% PBS or 10% of a 300 mM or 75 mM 2HG solution in PBS for a final 30 mM or 7.5 mM 2HG. Cells were seeded into flasks three days before harvesting. To harvest cells, media was removed, monolayers were washed with PBS, and 0.05% trypsin/EDTA was added. Cells were incubated for 20 min at 37° C. or until cells detached. Two volumes of media were added to the Trypsin/cell mix and suspended by gentle pipetting and triteration. Cells were counted, and 10^7 cells per sample were spun down at 1000 rpm×3 min in a polystyrene tube. Cells were washed twice with PBS and then snap-frozen on dry ice and stored at −80° C. until analysis.
Metabolite analysis: Metabolomic profiling analysis of all samples was carried out in collaboration with Metabolon (Durham, N.C.) as described previously (29-31), as follows:
Sample Preparation: The sample preparation process was carried out using the automated MicroLabSTAR® system (Hamilton Company, Reno, Nev.). Recovery standards were added prior to the first step in the extraction process for QC purposes. Sample preparation was conducted using a proprietary series of organic and aqueous extractions to remove the protein fraction while allowing maximum recovery of small molecules. The resulting extract was divided into two fractions; one for analysis by LC and one for analysis by GC. […]

[2] = tested on: complex V (ATP synthase) of the mitochondrial electron transport chain; conditions: chick neurons; reference 27; cited from earlier work
HOG cells [3] = assay: Targeted LC-MS/MS of NAA and NAAG in HOG cells incubated with NAA or NAAG media; type: cell-based, human
Description: Targeted mass LC-MS/MS. Simultaneous quantification of NAA and NAAG in cell culture media, cell lysates, and tissues was done by liquid chromatography-electrospray ionization-tandem mass spectrometry (LC-ESI-MS/MS).
Sample preparation. Media above the cells and cell lysates: To 20 μL of sample 40 μL of ice-cold methanol was added, mixture vigorously agitated (FastPrep, Qbiogene, Carlsbad, Calif. 20 s, speed 6), left at −20° C. for 15 min, agitated again (same cond.), centrifuged at 16,000 g for 5 min, and 50 μL of supernatant dried by vacuum centrifuge (50° C., 1 hr, SpeedVac, Thermo Scientific, West Palm Beach, Fla.). The dry residue was dissolved by 50 μL of mobile phase A (see below) and 10 μL injected into LC-MS/MS system. Tissue samples: To […] sample of wet tissue, 300 μL of deionized water and one 4 mm ceramic bead was added in 2-mL polypropylene tube and vigorously agitated (FastPrep, 20 s, speed 4, 2 cycles). A 50 μL aliquot of the homogenate was pipetted out for total protein measurement (for tissue mass normalization purpose) and 500 μL methanol added to the original vial which was again agitated (FastPrep, same conditions), left at −20° C. for 15 min, centrifuged at 16,000 g for 5 min, and 650 μL of supernatant dried by vacuum centrifuge (SpeedVac, 50° C., 1.5 hr). The dry residue was dissolved by 50 μL of mobile phase A (see below) and 10 μL injected into LC-MS/MS system.
LC-MS/MS analysis. Equipment: Agilent 1200 series HPLC (Santa Clara, Calif.) and Sciex/Applied Biosystems API 3200 QTrap (Carlsbad, Calif.). Mobile phase A: water, 3% methanol; mobile phase B: acetonitrile/methanol, 1/1. Analytical column: Kinetex C18, 150×4.6 mm, 2.6 μm, and SafeGuard C18 4×3 mm guard-column from Phenomenex (Torrance, Calif.). Column temperature: 45° C. Elution gradient at 1 mL/min flow rate: 0-1 min 0% B, 1-2 min 0-80% B, 2-3.5 min 80% B, 3.5-4 min 80-0% B, 4-10 min 0% B. Injection volume: 10 μL. The Q1/Q3 (m/z) transitions monitored in positive electrospray ionization mode: 176/158 (NAA, quantification), 176/134 (NAA, confirmation), 305/148 (NAAG, quantification), 305/130 (NAAG, confirmation).
Calibration. A set of calibrator samples in corresponding matrix was prepared for calibration by adding appropriate amounts of pure NAA and NAAG at the following concentration levels: 0, 0.01, 0.05, 0.25, 1.25, and 6.25 μg/mL. These samples were analyzed alongside the experimental samples and accuracy acceptance criteria was 85% for each but the lowest level (0.01 μg/mL, 80%). The limit of quantification (at 80% accuracy criterion) was determined to be 10 ng/ml for both NAA and NAAG. Samples in which NAA or NAAG was not detected were assigned to have a value of 0 NAA or NAAG (FIG. 5A,B). Statistically significant differences that we reported (FIG. 5A,B) were still significant when 10 ng/ml was assigned for samples in which NAA or NAAG was not detected. Quadratic least squares regression curve fit was employed to account for slight but predictable nonlinearity (ESI of highly polar analytes) with 1/x weighing factor. The addition of methanol to the sample matrix is shared with a recently reported NAAG analysis method (32). Otherwise this procedure is, to the best of our knowledge, novel.
Univariate statistics. Welch's t-test was used to determine whether mean levels of a biochemical in one experimental group were different from mean levels in another group. […]

[4] = 30 mM 2HG-treated HOG cells vs vector, p<0.001

**Q.** What does the source list for O=C(O)CC[C@@H](O)C(=O)O [2HG, 2-D-hydroxyl glutarate]?
**A.** number of biochemicals with altered levels (HOG cells [1]; 7.5 mM 2HG): 117; 2HG elevation (intracellular) (HOG cells [1]; 30 mM 2HG group, HOG lysate vs vector, p<0.001): 54 fold; number of biochemicals with altered levels (HOG cells [1]; 30 mM 2HG): 130; reduced and oxidized glutathione (HOG cells [1]; 30 mM 2HG-treated HOG cells vs vector): not significantly affected; α-ketoglutarate higher (HOG cells [1]; 30 mM 2HG-treated HOG cells vs vector, non-significant, p=0.10): 1.3 fold; N-acetyl-aspartate (NAA) lower (HOG cells [1]; 30 mM 2HG-treated HOG cells vs vector, not significantly changed, p=0.38): 1.1 fold; GPC higher (HOG cells [1]; [4]): 3.0 fold; NAAG lower (HOG cells [1]; [4]): 1.8 fold; choline phosphate lower (HOG cells [1]; [4]): 100 fold; glutamate increased (HOG cells [1]; 30 mM 2HG-treated HOG cells vs vector, p=0.002): 1.4 fold; effect on complex V (ATP synthase) [2]: impair

**Q.** Which “level of NAA in IDH1-R132H expressing cells” value (HOG cells [3]; HOG IDH1-R132H cells, 100 μM NAA media, 48 hours) does the source give for CC(=O)N[C@@H](CC(=O)O)C(=O)O [NAA, N-acetyl-aspartate] here?
**A.** increased the level of NAA in IDH1-R132H expressing cells to the normal level of NAA in the vector control

**Q.** What about the “intracellular NAA levels compared to controls” value (HOG cells [3]; HOG cells in media containing 100 μM NAA, 48 hours) of the same compound?
**A.** higher

**Q.** And the “NAAG in HOG cells expressing IDH1-R132H” value (HOG cells [3]; after NAA treatment (100 μM NAA media, 48 hours))?
**A.** did not increase

**Q.** With CC(=O)N[C@@H](CC(=O)O)C(=O)N[C@@H](CCC(=O)O)C(=O)O [NAAG, N-acetyl-aspartyl-glutamate] (Ac-Asp-Glu-OH) as the compound, how does the “NAA levels in NAAG-treated cells” value (HOG cells [3]; 10 μM NAAG, all groups (vector, IDH1-WT, IDH1-R132H)) read?
**A.** modestly increased

**Q.** What about the “intracellular NAAG levels compared to the no treatment group” value (HOG cells [3]; HOG cells treated with 10 μM NAAG, 48 hours) of the same compound?
**A.** increased
